Test results reported in patent US12290575B2, “Fluorescent compound comprising a fluorophore conjugated to a pH-triggered polypeptide” (UNIVERSITY OF RHODE ISLAND BOARD OF TRUSTEES, priority 2016, dated 2025).
Where a SMILES comes first, the peptide text is derived from it. Where no end group is shown, it is not given here. The star is where a group is joined. X1 = CC1(C)C(/C=C/C=C/C=C/C=C2/N(CCCCCC(=O)NCCN3C(=O)CC(*)C3=O)c3ccc4ccccc4c3C2(C)C)=[N+](CCCCS(=O)(=O)[O-])c2ccc3ccccc3c21; ICG maleimide = indocyanine green maleimide

Experiments:
[1] = Fluorescence imaging of blood flow in mice (ear, leg, blood samples); type: in vivo, nude mice; conditions: for fluorescent signal in blood samples: blood withdrawn 5-120 min after IV; for imaging of blood vessels (ear, leg): 100 μL of 40 μM IV, 5, 30, 60, 90, 120 min
Protocol: Adult female nude mice (Envigo), 20 g in body mass were used in the study. Fluorescent constructs were given as a single tail vein injection in amounts of 100 μL of 40 μM in PBS. Imaging of mouse ear and leg was performed at 5, 30, 60, 90 and 120 min after construct administration. At 5, 30, 60, 90 and 120 min after construct administration 5 μL of blood was withdrawn from tail (and mixed with 5 μL of anticoagulating solution to preserve blood) while animal was under anesthesia. Mice were euthanized immediately after last imaging point (120 min). Blood collected from all animals was deposited on the glass slide, dried and imaged. Imaging was performed using Novadaq clinical imaging instrument. Autofluorescence was established by imaging mouse with no injection of fluorescent constructs (the level of autofluorescence signal was insignificant compared to the signal after the constructs administration).

[2] = high dose of 5 mg/kg of body weight; cited from earlier work
[3] = cited from earlier work
[4] = current use; cited from earlier work
[5] = residue X in AcWL-X-LL, relative to virtual glycine; Arg and Lys from pH 1 data; cited from earlier work
[6] = system: urothelial carcinoma in human bladder specimens; test: Ex vivo NIR fluorescence imaging of human bladder specimens after instillation
Protocol: 22 urothelial carcinoma patients that were scheduled for radical cystectomy were selected over a twelve month period. After radical cystectomy, bladder specimens were immediately removed and irrigated 3 times for 5 min via catheter with non-buffered saline and instilled and incubated with 80 ml of 8 μM or 32.8 μg/ml (unless otherwise is stated, see notes to Table 8) of ICG-Var3 construct or ICG-Cys in PBS pH 7.4 containing 10 mM D-glucose for 60 minutes. Then, the unbound constructs were removed by rinsing with 80 ml of saline solution 3-5 times, the bladder was irrigated thoroughly with buffered saline and opened using a Y incision on the anterior wall. Using a da Vinci Si near-infrared fluorescence imaging system (Firefly®), ex vivo fluorescent and white light imaging of the entire bladder and its parts was performed. The fluorescent spots were marked and standard pathological analysis was carried out to explore the correlation between appearance of fluorescent signal and cancer lesions.
The specimen was sectioned and submitted after 24 hour fixation in 10% phosphate-buffered formalin according to the standard institutional grossing manual, with emphasis on the marked areas of the bladder. The sections were processed for routine histology into paraffin-embedded blocks. […]
Statistical parameters were calculated according to the following equations: […]

4T1 tumors = test: NIR fluorescence imaging of 4T1 tumors in mice after IV or IP injection; type: in vivo, BALB/cAnNHsd mice; conditions: 16 h
Protocol: Adult female nude mice and female BALB/cAnNHsd mice (Envigo), 20-25 g in body mass were used in the study. Mouse mammary cancer 4T1 cells were subcutaneously implanted in the right flank (8×10^5 cells/0.1 mL/flank) of adult female BALB/cAnNHsd mice. Rat bladder cancer AY27 cells were subcutaneously implanted in the right flank (8×10^5 cells/0.1 mL/flank) of adult female nude mice. When tumors reached approximately 5-6 mm in diameter, single tail vein injection or single intraperitoneal injection of fluorophore-pHLIP® solutions in PBS were performed. Fluorescent constructs were used in amounts of 100 μL of 40 μM or 100 μL of 20 μM, or 100 μL of 10 μM, or 100 μL of 5 μM. Imaging of mouse was performed at 16 hours after constructs administration. Skin was removed from the tumor site just before imaging while animal was under gas anesthesia, and mice were euthanized immediately after imaging. Tumor, kidney and liver were harvested, imaged and used for histopathological analysis. Imaging was performed using Stryker clinical imaging instrument. Autofluorescence was established by imaging mouse with no injection of fluorescent constructs (the level of autofluorescence signal was insignificant compared to the signal after the constructs administration).

CC[C@H](C)[C@H](NC(=O)[C@@H]1CCCN1C(=O)[C@H](CC(N)=O)NC(=O)[C@H](CCC(N)=O)NC(=O)[C@H](CCC(=O)O)NC(=O)[C@H](CSC1CC(=O)N(CCNC(=O)CCCCCN2/C(=C/C=C/C=C/C=C/C3=[N+](CCCCS(=O)(=O)[O-])c4ccc5ccccc5c4C3(C)C)C(C)(C)c3c2ccc2ccccc32)C1=O)NC(=O)[C@H](C)N)C(=O)N[C@@H](Cc1ccc(O)cc1)C(=O)N[C@@H](Cc1c[nH]c2ccccc12)C(=O)N[C@@H](C)C(=O)N[C@@H](CCCNC(=N)N)C(=O)N[C@@H](Cc1ccc(O)cc1)C(=O)N[C@@H](C)C(=O)N[C@@H](CC(N)=O)C(=O)N[C@@H](Cc1c[nH]c2ccccc12)C(=O)N[C@@H](CC(C)C)C(=O)N[C@@H](Cc1ccccc1)C(=O)N[C@H](C(=O)N[C@H](C(=O)N1CCC[C@H]1C(=O)N[C@@H](CC(C)C)C(=O)N[C@@H](CC(C)C)C(=O)N[C@@H](CC(C)C)C(=O)N[C@@H](CC(C)C)C(=O)N[C@@H](CC(N)=O)C(=O)N[C@@H](CC(C)C)C(=O)N[C@@H](C)C(=O)N[C@@H](CC(C)C)C(=O)N[C@@H](CC(C)C)C(=O)N[C@H](C(=O)N[C@@H](CC(=O)O)C(=O)N[C@@H](C)C(=O)N[C@@H](CC(=O)O)C(=O)N[C@@H](CCC(=O)O)C(=O)NCC(=O)N[C@H](C(=O)O)[C@@H](C)O)C(C)C)[C@@H](C)O)[C@@H](C)O (stereo partly drawn) [ICG-NpHLIP®] (H-AC(X1)EQNPIYWARYANWLFTTPLLLLNLALLVDADEGT-OH)
fluorescent signal in blood samples [1]: significantly reduced signal

ICG-Hum pHLIP®: ICG maleimide conjugated to the Cys of Hum pHLIP® GCDNNEGFFATLGGEIPLWSDVVLAIEG (SEQ ID NO: 446) (GC(ICG maleimide)DNNEGFFATLGGEIPLWSDVVLAIEG)
imaging of blood vessels (ear, leg) [1]: slow in reaching the best imagibility condition and was fast in decaying

CC1(C)C(/C=C/C=C/C=C/C=C2\N(CCCCS(=O)(=O)[O-])c3ccc4ccccc4c3C2(C)C)=[N+](CCCCS(=O)(=O)[O-])c2ccc3ccccc3c21.[Na+] [ICG, indocyanine green]
toxic effects [2]: No significant toxic effects | blood clearance ([3]; half lifetime is just few minutes): fast blood clearance | metabolites ([3]; in vivo): no known metabolites | time after which it binds to the regional lymph nodes ([3]; injected outside blood vessels): 1 to 2 h | time of appearing unconjugated in the bile after injection ([3]; intravenous injection, depends on liver vascularization and function): about 8 min | imaging time used for free ICG [4]: 2 to 5 min

C[C@@H](O)[C@H](N)C(=O)O [Thr, Threonine]
ΔGX^cor (solvation free energy of the side chain) [5]: +0.90 kcal/mol

IR800-WT pHLIP®: IR800 maleimide conjugated to the Cys of WT pHLIP® (SEQ ID NO: 444) (AC(IR800 maleimide)EQNPIYWARYADWLFTTPLLLLDLALLVDADEGT)
imaging of blood vessels (ear, leg) [1]: better in imaging of blood vessels, however not nearly as good as ICG-WT and ICG-Var3 pHLIP®s

N[C@@H](CO)C(=O)O [Ser, Serine]
ΔGX^cor (solvation free energy of the side chain) [5]: +0.69 kcal/mol

NC(=O)C[C@H](N)C(=O)O [Asn, Asparagine]
ΔGX^cor (solvation free energy of the side chain) [5]: +0.30 kcal/mol

CC[C@H](C)[C@H](NC(=O)[C@@H]1CCCN1C(=O)[C@H](CC(N)=O)NC(=O)[C@H](CCC(N)=O)NC(=O)[C@H](CCC(=O)O)NC(=O)[C@H](CSC1CC(=O)N(CCNC(=O)CCCCCN2/C(=C/C=C/C=C/C=C/C3=[N+](CCCCS(=O)(=O)[O-])c4ccc5ccccc5c4C3(C)C)C(C)(C)c3c2ccc2ccccc32)C1=O)NC(=O)[C@H](C)N)C(=O)N[C@@H](Cc1ccc(O)cc1)C(=O)N[C@@H](Cc1c[nH]c2ccccc12)C(=O)N[C@@H](C)C(=O)N[C@@H](CCCNC(=N)N)C(=O)N[C@@H](Cc1ccc(O)cc1)C(=O)N[C@@H](C)C(=O)N[C@@H](CC(=O)O)C(=O)N[C@@H](Cc1c[nH]c2ccccc12)C(=O)N[C@@H](CC(C)C)C(=O)N[C@@H](Cc1ccccc1)C(=O)N[C@H](C(=O)N[C@H](C(=O)N1CCC[C@H]1C(=O)N[C@@H](CC(C)C)C(=O)N[C@@H](CC(C)C)C(=O)N[C@@H](CC(C)C)C(=O)N[C@@H](CC(C)C)C(=O)N[C@@H](CC(=O)O)C(=O)N[C@@H](CC(C)C)C(=O)N[C@@H](C)C(=O)N[C@@H](CC(C)C)C(=O)N[C@@H](CC(C)C)C(=O)N[C@H](C(=O)N[C@@H](CC(=O)O)C(=O)N[C@@H](C)C(=O)N[C@@H](CC(=O)O)C(=O)N[C@@H](CCC(=O)O)C(=O)NCC(=O)N[C@H](C(=O)O)[C@@H](C)O)C(C)C)[C@@H](C)O)[C@@H](C)O (stereo partly drawn) [ICG-WT pHLIP®]
fluorescent signal in blood samples [1]: persistence of strong fluorescent signal within 2 hours

CC(C)C[C@H](NC(=O)[C@H](Cc1ccc(O)cc1)NC(=O)[C@H](C)NC(=O)[C@H](CCCNC(=N)N)NC(=O)[C@H](Cc1c[nH]c2ccccc12)NC(=O)[C@@H]1CCCN1C(=O)[C@H](CC(N)=O)NC(=O)[C@H](CCC(N)=O)NC(=O)[C@H](CC(=O)O)NC(=O)[C@H](CC(=O)O)NC(=O)[C@H](CSC1CC(=O)N(CCNC(=O)CCCCCN2/C(=C/C=C/C=C/C=C/C3=[N+](CCCCS(=O)(=O)[O-])c4ccc5ccccc5c4C3(C)C)C(C)(C)c3c2ccc2ccccc32)C1=O)NC(=O)[C@H](C)N)C(=O)N[C@@H](CC(=O)O)C(=O)N[C@@H](CC(C)C)C(=O)N[C@@H](CC(C)C)C(=O)N[C@@H](Cc1ccccc1)C(=O)N1CCC[C@H]1C(=O)N[C@H](C(=O)N[C@@H](CC(=O)O)C(=O)N[C@H](C(=O)N[C@@H](CC(C)C)C(=O)N[C@@H](CC(C)C)C(=O)N[C@@H](CC(C)C)C(=O)N[C@@H](CC(=O)O)C(=O)N[C@@H](CC(C)C)C(=O)N[C@@H](CC(C)C)C(=O)N[C@@H](Cc1c[nH]c2ccccc12)C(=O)N[C@@H](C)C(=O)O)[C@@H](C)O)[C@@H](C)O (stereo partly drawn) [ICG-Var3] (H-AC(X1)DDQNPWRAYLDLLFPTDTLLLDLLWA-OH)
fluorescent signal in blood samples [1]: persistence of strong fluorescent signal within 2 hours | adverse morphological findings in specimens after incubation [6]: did not show any adverse morphological findings | fluorescent signal in tumor relative to kidney and liver (4T1 tumors): signal in tumor was higher than in kidney and similar or slightly less than in liver

N=C(N)NCCC[C@H](N)C(=O)O [Arg, Arginine]
ΔGX^cor (solvation free energy of the side chain) [5]: -0.66 kcal/mol

C[C@H](N)C(=O)O [Ala, Alanine]
ΔGX^cor (solvation free energy of the side chain) [5]: +0.65 kcal/mol
